Laboratory results as given in patent US20240059698A1 (Accutar Biotechnology Inc., priority 2022, published 2024).

What was measured:
Assay type in all cases: cell-based
[1] = system: HCC827-YVMA cells (human ERBB2 exon20 insertion mutant A775_G776ins YVMA); experiment: Cell growth inhibition (CellTiter-Glo), HCC827-YVMA; details: 72 h, HCC827-YVMA cells, 3 days, CellTiter-Glo, read-out: Cell growth inhibition, GI50 (nM) HCC827-YVMA
Procedure, shortened: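 HCC827 cells transduced with lentiviral codon-optimized mutant (ERBB2 A775_G776insYVMA or EGFR V769_D770insASV), endogenous EGFR knocked out by CRISPR, single clone selected. Cells seeded overnight in RPMI/10% FBS, then exposed to serially diluted compounds at 37 °C for 3 days; viability read by CellTiter-Glo luminescence.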

[2] = system: HCC827-SVD cells (human EGFR exon 20 insertion mutant D770_N771insSVD); experiment: Cell growth inhibition (CellTiter-Glo), HCC827-SVD; details: 72 h, 3 days
Procedure, shortened: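 HCC827 cells with endogenous EGFR knocked out and lentivirally expressing the insertion mutant (single clone) were seeded at 5000 cells/well in RPMI with 10% FBS. After overnight, compounds added; 3 days at 37 °C, then CellTiter-Glo luminescence.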

HCC827 cells = experiment: Cell growth inhibition (CellTiter-Glo), HCC827; details: Homo sapiens, 72 h, 3 days
Experimental: 2. Cell Growth Inhibition for HCC827, HCC827-SVD, HCC827-ASV, HCC827-YVMA, and A431.
HCC827(ATCC), HCC827-SVD, HCC827-ASV, and HCC827-YVMA cells were seeded in 96-well plates at 5000 cells/well in 90 μL of RPMI growth medium containing 10% FBS and 1% Penicillin Streptomycin. A431 (ATCC) cells were seeded in 96-well plates at 5000 cells/well in 90 μL of DMEM growth medium containing 10% FBS and 1% Penicillin Streptomycin. Cells were incubated at 37° C. overnight and then administered with 10 μL 10× test compounds prepared in the growth medium at various concentrations. After administration of the compounds, cells were incubated at 37° C. for 3 days. Before the CellTiter-Glo assay, the plates were equilibrated at room temperature for approximately 30 minutes. 100 ul of CellTiter-Glo reagent (Promega) was added to each well. The plates were then incubated at room temperature for 10 minutes and luminescence was recorded by the EnSight® multimode plate reader (PerkinElmer). Table 7 listed selected compounds in cellular growth assay.

| GI50 [1] [nM] | GI50 [2] [nM] | GI50 (HCC827 cells) [nM] | Compound |
| --- | --- | --- | --- |
| 50 to 200 | 200 to 1000 | 200 to 1000 | C=CC(=O)N1CCC(c2c[nH]c3ncnc(Nc4ccc(OC5CCCN(S(=O)(=O)c6ccccc6)C5)cc4F)c23)CC1 (stereo in doubt) [Compound 124, (S)-1-(4-(4-((2-fluoro-4-((1-(phenylsulfonyl)piperidin-3-yl)oxy)phenyl)amino)-7H-pyrrolo[2,3-d]pyrimidin-5-yl)piperidin-1-yl)prop-2-en-1-one] |
| 50 to 200 | 50 to 200 | 50 to 200 | C=CC(=O)N1CCC(c2c[nH]c3ncnc(Nc4ccc(OCc5ccnc(-n6ccc(OC)n6)c5)cc4F)c23)CC1 [Compound 92, 1-(4-(4-((2-fluoro-4-((2-(3-methoxy-1H-pyrazol-1-yl)pyridin-4-yl)methoxy)phenyl)amino)-7H-pyrrolo[2,3-d]pyrimidin-5-yl)piperidin-1-yl)prop-2-en-1-one] |
| 50 to 200 | 50 to 200 | 50 to 200 | C=CC(=O)N1CCC(c2c[nH]c3ncnc(Nc4ccc(OCc5ccnc(Nc6ccccn6)c5)cc4F)c23)CC1 [Compound 93, 1-(4-(4-((2-fluoro-4-((2-(pyridin-2-ylamino)pyridin-4-yl)methoxy)phenyl)amino)-7H-pyrrolo[2,3-d]pyrimidin-5-yl)piperidin-1-yl)prop-2-en-1-one] |
| 50 to 200 | 50 to 200 | 50 to 200 | C=CC(=O)N1CCC(c2c[nH]c3ncnc(Nc4ccc(OCc5nccn5C)c(Cl)c4)c23)CC1 [Compound 94, 1-(4-(4-((3-chloro-4-((1-methyl-1H-imidazol-2-yl)methoxy)phenyl)amino)-7H-pyrrolo[2,3-d]pyrimidin-5-yl)piperidin-1-yl)prop-2-en-1-one] |
| < 50 | < 50 | < 50 | C=CC(=O)N1CCC(c2c[nH]c3ncnc(Nc4ccc(OCc5ncco5)c(Cl)c4)c23)CC1 [Compound 95, 1-(4-(4-((3-chloro-4-(oxazol-2-ylmethoxy)phenyl)amino)-7H-pyrrolo[2,3-d]pyrimidin-5-yl)piperidin-1-yl)prop-2-en-1-one] |
| 200 to 1000 | > 1000 | 200 to 1000 | C=CC(=O)N1CCC(c2c[nH]c3ncnc(Nc4ccc(OCc5ccc(-c6ccccc6)nc5)cc4F)c23)CC1 [Compound 96, 1-(4-(4-((2-fluoro-4-((6-phenylpyridin-3-yl)methoxy)phenyl)amino)-7H-pyrrolo[2,3-d]pyrimidin-5-yl)piperidin-1-yl)prop-2-en-1-one] |
| 200 to 1000 | 200 to 1000 | 200 to 1000 | C=CC(=O)N1CCC(c2c[nH]c3ncnc(Nc4ccc(OCc5ccnc(-c6ccccc6)c5)cc4F)c23)CC1 [Compound 97, 1-(4-(4-((2-fluoro-4-((2-phenylpyridin-4-yl)methoxy)phenyl)amino)-7H-pyrrolo[2,3-d]pyrimidin-5-yl)piperidin-1-yl)prop-2-en-1-one] |
| < 50 | < 50 | < 50 | C=CC(=O)N1CCC(c2c[nH]c3ncnc(Nc4ccc(OCc5cccc(C)n5)c(Cl)c4)c23)CC1 [Compound 98, 1-(4-(4-((3-chloro-4-((6-methylpyridin-2-yl)methoxy)phenyl)amino)-7H-pyrrolo[2,3-d]pyrimidin-5-yl)piperidin-1-yl)prop-2-en-1-one] |
| < 50 | 50 to 200 | 50 to 200 | C=CC(=O)N1CCC(c2c[nH]c3ncnc(Nc4ccc(OCc5ccc(OC)cn5)c(Cl)c4)c23)CC1 [Compound 99, 1-(4-(4-((3-chloro-4-((5-methoxypyridin-2-yl)methoxy)phenyl)amino)-7H-pyrrolo[2,3-d]pyrimidin-5-yl)piperidin-1-yl)prop-2-en-1-one] |
| < 50 | < 50 | < 50 | C=CC(=O)N1CCC(c2c[nH]c3ncnc(Nc4ccc(OCc5cc(C#N)ccn5)c(Cl)c4)c23)CC1 [Compound 100, 2-((4-((5-(1-acryloylpiperidin-4-yl)-7H-pyrrolo[2,3-d]pyrimidin-4-yl)amino)-2-chlorophenoxy)methyl)isonicotinonitrile] |
| 50 to 200 | 50 to 200 | 50 to 200 | C=CC(=O)N1CCC(c2c[nH]c3ncnc(Nc4ccc(OCc5ccc(C#N)cn5)c(Cl)c4)c23)CC1 [Compound 101, 6-((4-((5-(1-acryloylpiperidin-4-yl)-7H-pyrrolo[2,3-d]pyrimidin-4-yl)amino)-2-chlorophenoxy)methyl)nicotinonitrile] |
| < 50 | 50 to 200 | 50 to 200 | C=CC(=O)N1CCC(c2c[nH]c3ncnc(Nc4ccc(OCc5cn6ccccc6n5)c(Cl)c4)c23)CC1 [Compound 102, 1-(4-(4-((3-chloro-4-(imidazo[1,2-a]pyridin-2-ylmethoxy)phenyl)amino)-7H-pyrrolo[2,3-d]pyrimidin-5-yl)piperidin-1-yl)prop-2-en-1-one] |
| 50 to 200 | 50 to 200 | 50 to 200 | C=CC(=O)N1CCC(c2c[nH]c3ncnc(Nc4ccc(OCc5nc(C(F)(F)F)cs5)c(Cl)c4)c23)CC1 [Compound 103, 1-(4-(4-((3-chloro-4-((4-(trifluoromethyl)thiazol-2-yl)methoxy)phenyl)amino)-7H-pyrrolo[2,3-d]pyrimidin-5-yl)piperidin-1-yl)prop-2-en-1-one] |
| < 50 | 50 to 200 | 200 to 1000 | C=CC(=O)N1CCC(c2c[nH]c3ncnc(Nc4ccc(Oc5ccnc(Nc6ccccc6)c5)cc4F)c23)CC1 [Compound 104, 1-(4-(4-((2-fluoro-4-((2-(phenylamino)pyridin-4-yl)oxy)phenyl)amino)-7H-pyrrolo[2,3-d]pyrimidin-5-yl)piperidin-1-yl)prop-2-en-1-one] |
| < 50 | < 50 | < 50 | C=CC(=O)N1CCC(c2c[nH]c3ncnc(Nc4ccc(OCc5ccccn5)cc4F)c23)CC1 [Compound 105, 1-(4-(4-((2-fluoro-4-(pyridin-2-ylmethoxy)phenyl)amino)-7H-pyrrolo[2,3-d]pyrimidin-5-yl)piperidin-1-yl)prop-2-en-1-one] |
| < 50 | < 50 | < 50 | C=CC(=O)N1CCC(c2c[nH]c3ncnc(Nc4ccc(OCc5ccccn5)c(Cl)c4F)c23)CC1 [Compound 106, 1-[4-[4-[3-chloro-2-fluoro-4-(2-pyridylmethoxy)anilino]-7H-pyrrolo[2,3-d]pyrimidin-5-yl]-1-piperidyl]prop-2-en-1-one] |
| 50 to 200 | 200 to 1000 | > 1000 | C=CC(=O)N1CCC(c2c[nH]c3ncnc(Nc4ccc(Oc5ccnc(N6CC(C(F)(F)F)C6)c5)cc4F)c23)CC1 [Compound 107, 1-(4-(4-((2-fluoro-4-((2-(3-(trifluoromethyl)azetidin-1-yl)pyridin-4-yl)oxy)phenyl)amino)-7H-pyrrolo[2,3-d]pyrimidin-5-yl)piperidin-1-yl)prop-2-en-1-one] |
| > 1000 | > 1000 | 200 to 1000 | C=CC(=O)N1CCC(c2c[nH]c3ncnc(Nc4ccc(OCc5cnn(C(C)C)c5)c(Cl)c4)c23)CC1 [Compound 108, 1-(4-(4-((3-chloro-4-((1-isopropyl-1H-pyrazol-4-yl)methoxy)phenyl)amino)-7H-pyrrolo[2,3-d]pyrimidin-5-yl)piperidin-1-yl)prop-2-en-1-one] |
| < 50 | 50 to 200 | < 50 | C=CC(=O)N1CCC(c2c[nH]c3ncnc(Nc4ccc(Oc5ccnc(NC6CCC6)c5)cc4F)c23)CC1 [Compound 109, 1-[4-[4-[4-[[2-(cycloButylamino)-4-pyridyl]oxy]-2-fluoro-anilino]-7H-pyrrolo[2,3-d]pyrimidin-5-yl]-1-piperidyl]prop-2-en-1-one] |
| 50 to 200 | 200 to 1000 | 50 to 200 | C=CC(=O)N1CCC(c2c[nH]c3ncnc(Nc4ccc(OCc5ccc(C(F)(F)F)cn5)c(Cl)c4)c23)CC1 [Compound 112, 1-(4-(4-((3-chloro-4-((5-(trifluoromethyl)pyridin-2-yl)methoxy)phenyl)amino)-7H-pyrrolo[2,3-d]pyrimidin-5-yl)piperidin-1-yl)prop-2-en-1-one] |
| 50 to 200 | 50 to 200 |  | C=CC(=O)N1CCC(c2n[nH]c3ncnc(Nc4ccc(Oc5ccnc(NC(=O)C(C)(C)C)c5)cc4F)c23)CC1 [Compound 192, N-(4-(4-((3-(1-acryloylpiperidin-4-yl)-1H-pyrazolo[3,4-d]pyrimidin-4-yl)amino)-3-fluorophenoxy)pyridin-2-yl)pivalamide] |
| 200 to 1000 | 200 to 1000 |  | C=CC(=O)N1CCC(c2n[nH]c3ncnc(Nc4ccc(Oc5ccnc(NC(=O)c6cnn(C)c6)c5)cc4F)c23)CC1 [Compound 196, N-(4-(4-((3-(1-acryloylpiperidin-4-yl)-1H-pyrazolo[3,4-d]pyrimidin-4-yl)amino)-3-fluorophenoxy)pyridin-2-yl)-1-methyl-1H-pyrazole-4-carboxamide] |
